According to the supplement of paper PMC7214452:

Experiments:
Assay in all cases: normalized area under the dose-response curve (viability relative to DMSO control) (fraction); higher = less sensitive (more viable cells)
Conditions in all cases: exposure time not given
AMO1 (cancer type: MM) = test system: AMO1 (cancer type: MM)
Description: (§1)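 25 myeloma and 15 non-Hodgkin lymphoma cell lines were exposed to each of 76 drugs as 7-point log dilutions (0.01 nM–10 µM) in duplicate. Viability was read with CellTiter-Glo and normalised to DMSO (0.1%) and staurosporine (10 µM) plate controls. Normalised AUC was calculated by the trapezoidal method relative to the negative control.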

EJM (cancer type: MM) = test system: EJM (cancer type: MM)
Description: as §1

FR4 (cancer type: MM) = test system: FR4 (cancer type: MM)
Description: as §1

[1] = test system: Granta-519 (cancer type: Mantle)
Description: as §1

[2] = test system: HuT 78 (cancer type: TCL)
Description: as §1

JJN3 (cancer type: MM) = test system: JJN3 (cancer type: MM)
Description: as §1

[3] = test system: JVM2 (cancer type: Mantle)
Description: as §1

[4] = test system: JeKo-1 (cancer type: Mantle)
Description: as §1

KMS11 (cancer type: MM) = test system: KMS11 (cancer type: MM)
Description: as §1

[5] = test system: KMS12PE (cancer type: MM)
Description: as §1

KMS18 (cancer type: MM) = test system: KMS18 (cancer type: MM)
Description: as §1

KMS26 (cancer type: MM) = test system: KMS26 (cancer type: MM)
Description: as §1

[6] = test system: KMS28BM (cancer type: MM)
Description: as §1

[7] = test system: KMS28PE (cancer type: MM)
Description: as §1

KMS34 (cancer type: MM) = test system: KMS34 (cancer type: MM)
Description: as §1

[8] = test system: Karpas-299 (cancer type: TCL)
Description: as §1

L363 (cancer type: MM) = test system: L363 (cancer type: MM)
Description: as §1

LP1 (cancer type: MM) = test system: LP1 (cancer type: MM)
Description: as §1

MM1.R (cancer type: MM) = test system: MM1.R (cancer type: MM)
Description: as §1

MM1.S (cancer type: MM) = test system: MM1.S (cancer type: MM)
Description: as §1

[9] = test system: Mino (cancer type: Mantle)
Description: as §1

My-La (cancer type: TCL) = test system: My-La (cancer type: TCL)
Description: as §1

[10] = test system: NCI-H929 (cancer type: MM)
Description: as §1

[11] = test system: OCI-LY1 (cancer type: DLBCL)
Description: as §1

[12] = test system: OCI-LY19 (cancer type: DLBCL)
Description: as §1

[13] = test system: OCI-LY3 (cancer type: DLBCL)
Description: as §1

[14] = test system: OCI-MY5 (cancer type: MM)
Description: as §1

[15] = test system: OCI-MY5/CRBN (cancer type: MM)
Description: as §1

[16] = test system: OCI-MY5/Vec (cancer type: MM)
Description: as §1

[17] = test system: OCI-MY7 (cancer type: MM)
Description: as §1

OPM2 (cancer type: MM) = test system: OPM2 (cancer type: MM)
Description: as §1

[18] = test system: RPMI 8226 (cancer type: MM)
Description: as §1

SKMM2 (cancer type: MM) = test system: SKMM2 (cancer type: MM)
Description: as §1

[19] = test system: SR-786 (cancer type: TCL)
Description: as §1

[20] = test system: SU-DHL1 (cancer type: TCL)
Description: as §1

[21] = test system: SU-DHL2 (cancer type: DLBCL)
Description: as §1

[22] = test system: SU-DHL6 (cancer type: DLBCL)
Description: as §1

Se-Ax (cancer type: TCL) = test system: Se-Ax (cancer type: TCL)
Description: as §1

U266 (cancer type: MM) = test system: U266 (cancer type: MM)
Description: as §1

XG2 (cancer type: MM) = test system: XG2 (cancer type: MM)
Description: as §1

Structure (SMILES) | normalized area under the dose-response curve (AMO1 (cancer type: MM)) | normalized area under the dose-response curve (EJM (cancer type: MM)) | normalized area under the dose-response curve (FR4 (cancer type: MM)) | normalized area under the dose-response curve [1] | normalized area under the dose-response curve [2] | normalized area under the dose-response curve (JJN3 (cancer type: MM)) | normalized area under the dose-response curve [3] | normalized area under the dose-response curve [4] | normalized area under the dose-response curve (KMS11 (cancer type: MM)) | normalized area under the dose-response curve [5] | normalized area under the dose-response curve (KMS18 (cancer type: MM)) | normalized area under the dose-response curve (KMS26 (cancer type: MM)) | normalized area under the dose-response curve [6] | normalized area under the dose-response curve [7] | normalized area under the dose-response curve (KMS34 (cancer type: MM)) | normalized area under the dose-response curve [8] | normalized area under the dose-response curve (L363 (cancer type: MM)) | normalized area under the dose-response curve (LP1 (cancer type: MM)) | normalized area under the dose-response curve (MM1.R (cancer type: MM)) | normalized area under the dose-response curve (MM1.S (cancer type: MM)) | normalized area under the dose-response curve [9] | normalized area under the dose-response curve (My-La (cancer type: TCL)) | normalized area under the dose-response curve [10] | normalized area under the dose-response curve [11] | normalized area under the dose-response curve [12] | normalized area under the dose-response curve [13] | normalized area under the dose-response curve [14] | normalized area under the dose-response curve [15] | normalized area under the dose-response curve [16] | normalized area under the dose-response curve [17] | normalized area under the dose-response curve (OPM2 (cancer type: MM)) | normalized area under the dose-response curve [18] | normalized area under the dose-response curve (SKMM2 (cancer type: MM)) | normalized area under the dose-response curve [19] | normalized area under the dose-response curve [20] | normalized area under the dose-response curve [21] | normalized area under the dose-response curve [22] | normalized area under the dose-response curve (Se-Ax (cancer type: TCL)) | normalized area under the dose-response curve (U266 (cancer type: MM)) | normalized area under the dose-response curve (XG2 (cancer type: MM))
Cc1cccc(/C=N/Nc2cc(N3CCOCC3)n3nc(-c4ccncc4)cc3n2)c1 [apy0201] | 0.415 | 0.769 | 0.578 | 0.93 | 0.57 | 0.311 | 0.831 | 0.681 | 0.508 | 0.41 | 0.756 | 0.688 | 0.822 | 0.736 | 0.269 | 0.648 | 0.516 | 0.81 | 0.69 | 0.65 | 0.709 | 0.885 | 0.43 | 0.655 | 0.634 | 0.863 | 0.447 | 0.867 | 0.794 | 0.65 | 0.504 | 0.706 | 0.826 | 0.601 | 0.682 | 0.897 | 0.77 | 0.673 | 0.564 | 0.511
Cc1sc2c(c1C)C(c1ccc(Cl)cc1)=N[C@@H](CC(=O)OC(C)(C)C)c1nnc(C)n1-2 [jq1] | 0.48 | 0.703 | 0.613 | 0.899 | 0.566 | 0.57 | 0.564 | 0.684 | 0.654 | 0.65 | 0.813 | 0.475 | 0.78 | 0.647 | 0.501 | 0.661 | 0.529 | 0.65 | 0.55 | 0.53 | 0.598 | 0.747 | 0.53 | 0.812 | 0.679 | 0.707 | 0.488 | 0.645 | 0.57 | 0.39 | 0.671 | 0.616 | 0.672 | 0.647 | 0.674 | 0.635 | 0.829 | 0.566 | 0.852 | 0.747
Cc1sc2c(c1C)C(c1ccc(Cl)cc1)=N[C@@H](CC(=O)Nc1ccc(O)cc1)c1nnc(C)n1-2 [otx-015] | 0.497 | 0.685 | 0.732 | 0.902 | 0.859 | 0.568 | 0.609 | 0.84 | 0.656 | 0.59 | 0.713 | 0.395 | 0.801 | 0.681 | 0.514 | 0.628 | 0.545 | 0.701 | 0.61 | 0.56 | 0.595 | 0.796 | 0.54 | 0.752 | 0.637 | 0.759 | 0.491 | 0.641 | 0.563 | 0.4 | 0.7 | 0.642 | 0.657 | 0.695 | 0.729 | 0.558 | 0.757 | 0.657 | 0.62 | 0.622
